In one assay the target is Adenosine receptor A2a (Homo sapiens, UniProt P29274).
Another assay has as its target T1, Adenosine receptor A3 (Homo sapiens, UniProt P0DMS8).
T1 sequence (P0DMS8 whole entry): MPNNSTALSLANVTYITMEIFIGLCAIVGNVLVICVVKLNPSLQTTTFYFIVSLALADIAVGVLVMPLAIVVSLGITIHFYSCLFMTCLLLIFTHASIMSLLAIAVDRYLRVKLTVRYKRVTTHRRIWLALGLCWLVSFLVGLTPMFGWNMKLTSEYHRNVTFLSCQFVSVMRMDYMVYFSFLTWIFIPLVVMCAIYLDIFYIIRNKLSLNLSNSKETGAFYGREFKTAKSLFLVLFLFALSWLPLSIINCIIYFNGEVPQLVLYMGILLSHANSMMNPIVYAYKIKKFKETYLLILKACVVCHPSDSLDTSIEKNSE

Adenosine receptor A2a, sequence (P29274 whole entry): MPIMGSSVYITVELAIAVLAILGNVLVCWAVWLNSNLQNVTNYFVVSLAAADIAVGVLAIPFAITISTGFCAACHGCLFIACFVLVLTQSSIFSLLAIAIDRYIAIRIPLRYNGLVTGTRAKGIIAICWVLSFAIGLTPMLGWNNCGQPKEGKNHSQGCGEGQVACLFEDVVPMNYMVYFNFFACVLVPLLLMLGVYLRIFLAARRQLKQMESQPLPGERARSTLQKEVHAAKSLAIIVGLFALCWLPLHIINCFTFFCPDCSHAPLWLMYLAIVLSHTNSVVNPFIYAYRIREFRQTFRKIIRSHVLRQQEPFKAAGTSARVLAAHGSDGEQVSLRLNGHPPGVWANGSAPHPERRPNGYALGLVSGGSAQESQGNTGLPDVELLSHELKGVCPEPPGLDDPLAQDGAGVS

Regarding `OC[C@H]1O[C@@H](n2cnc3c(NC4CCCC4)ncnc32)[C@H](O)[C@@H]1O`, the inhibition constant (Ki) was found to be 794 nM on Adenosine receptor A2a and 43 nM at Adenosine receptor A3. For `Nc1nc2ccc(Cl)cc2c2nc(-c3ccco3)nn12`, at Adenosine receptor A3, the inhibition constant Ki is 50.8 nM. `CNC(=O)[C@H]1O[C@@H](n2cnc3c(NCc4ccc(N)c(I)c4)ncnc32)[C@H](O)[C@@H]1O` returned a Ki at Adenosine receptor A2a of 471 nM. On Adenosine receptor A3, `CNC(=O)[C@H]1O[C@@H](n2cnc3c(NCc4ccc(N)cc4)ncnc32)[C@H](O)[C@@H]1O` [AB-MECA] came in with an inhibition constant (Ki) of 21.5 nM. This counts as double-digit nanomolar.

In general, Ki refers to a measure of affinity in units of concentration, obtained from inhibition or displacement.
